Laboratory results as given in US9278912B2, “C13-hydroxy derivatives of oleanolic acid and methods of use thereof” (priority 2012, dated 2016).

System: IFNγ-induced NO production in RAW264.7 mouse macrophages
Assay: Suppression of IFNγ-induced NO production (Nitric Oxide Production and Cell Viability Assay)
Assay type: cell-based
Conditions: RAW264.7 cells, 2 h pretreatment, then IFNγ 24 h, Griess reagent, normalized to cell viability (WST-1)
Protocol: Assay results for the suppression of IFNγ-induced NO production are shown for several of the compounds of the present invention in Table 1 below. In the right-hand column of this table under the RAW264.7 heading, the results are compared to those of bardoxolone methyl (RTA 402, CDDO-Me). Details regarding this assay are provided in the Examples section below. Nitric Oxide Production and Cell Viability Assay. […] On the next day, cells were pretreated with DMSO or drug (0-200 nM dose range) for 2 hours, and then treated with recombinant mouse IFNγ (R&D Systems) for 24 hours. Nitric Oxide concentration in media was determined using the Griess reagent system (Promega). Cell viability was determined using WST-1 reagent (Roche). IC50 values were determined based on the suppression of IFNγ induced Nitric Oxide production normalized to cell viability.

Row | Structure (SMILES) | IC50 [nM]
1 | CC(=O)OC[C@]12CCC(C)(C)C[C@H]1[C@@]1(O)[C@H](OC(C)=O)C=C3[C@@]4(C)C=C(C#N)C(=O)C(C)(C)[C@@H]4CC[C@@]3(C)[C@]1(C)CC2 [TX63498] | 24
2 | COC(=O)[C@]12CCC(C)(C)C[C@H]1[C@@]1(O)C(=O)C=C3[C@@]4(C)C=C(C#N)C(=O)C(C)(C)[C@@H]4CC[C@@]3(C)[C@]1(C)CC2 [TX63421] | 2.3
3 | CCCCC1O[C@]23C(=O)C=C4[C@@]5(C)C=C(C#N)C(=O)C(C)(C)[C@@H]5CC[C@@]4(C)[C@]2(C)CC[C@]12CCC(C)(C)C[C@H]23 (stereo partly shown) [TX63484] | 37
4 | CC1(C)CC[C@]2(C(N)=O)CC[C@@]3(C)[C@]4(C)CC[C@H]5C(C)(C)C(=O)C(C#N)=C[C@]5(C)C4=CC(=O)[C@]3(O)[C@@H]2C1 [TX63530] | 1.4
5 | CCNC(=O)[C@]12CCC(C)(C)C[C@H]1[C@@]1(O)C(=O)C=C3[C@@]4(C)C=C(C#N)C(=O)C(C)(C)[C@@H]4CC[C@@]3(C)[C@]1(C)CC2 [TX63536] | 5.6
6 | CC(C)C1O[C@]23C(=O)C=C4[C@@]5(C)C=C(C#N)C(=O)C(C)(C)[C@@H]5CC[C@@]4(C)[C@]2(C)CC[C@]12CCC(C)(C)C[C@H]23 (stereo partly shown) [TX63496] | 37
7 | CCOC(=O)[C@]12CCC(C)(C)C[C@H]1[C@@]1(O)C(=O)C=C3[C@@]4(C)C=C(C#N)C(=O)C(C)(C)[C@@H]4CC[C@@]3(C)[C@]1(C)CC2 [TX63469] | 2.2
8 | CC1(C)CC[C@]2(CO)CC[C@]3(C)[C@](O)([C@H](O)C=C4[C@@]5(C)C=C(C#N)C(=O)C(C)(C)[C@@H]5CC[C@]43C)[C@@H]2C1 [TX63489] | 61
9 | CC(=O)OC[C@]12CCC(C)(C)C[C@H]1[C@@]1(O)C(=O)C=C3[C@@]4(C)C=C(C#N)C(=O)C(C)(C)[C@@H]4CC[C@@]3(C)[C@]1(C)CC2 [TX63499] | 2.1
10 | CC1(C)CC[C@]2(CO)CC[C@@]3(C)[C@]4(C)CC[C@H]5C(C)(C)C(=O)C(C#N)=C[C@]5(C)C4=CC(=O)[C@]3(O)[C@@H]2C1 [TX63490] | 1.5
